# Measured values published in ChEMBL document CHEMBL1201862, “PubChem BioAssay data set” (2004).
# Active and inactive are the calls of the source.
# Assays:
# Caspase-6 = biological target: T1, Caspase-6 (Homo sapiens, UniProt P55212); assay: human caspase-6 inhibitors, dose response, biochemical, VEID-R110 fluorescence, cherry-pick (AID 720632)
# T1 sequence (P55212 whole entry): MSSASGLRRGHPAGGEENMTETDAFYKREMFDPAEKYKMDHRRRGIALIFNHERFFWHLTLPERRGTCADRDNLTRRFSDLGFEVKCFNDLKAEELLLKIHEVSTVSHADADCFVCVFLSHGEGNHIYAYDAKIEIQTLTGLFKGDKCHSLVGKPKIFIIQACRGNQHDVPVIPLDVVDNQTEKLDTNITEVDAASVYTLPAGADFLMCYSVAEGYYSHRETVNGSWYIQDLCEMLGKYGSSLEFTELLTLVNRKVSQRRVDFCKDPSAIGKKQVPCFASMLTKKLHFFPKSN
# [1] = biological target: Induced myeloid leukemia cell differentiation protein Mcl-1 (Homo sapiens, UniProt Q07820); assay: MCL1-BIM BH3 interaction inhibitors, dose response, biochemical, fluorescence polarization, BIM-BH3 peptide, 1536-well (AID 2217)
# Bcl-2-like protein 1 = Bcl-2-like protein 1 (Homo sapiens, UniProt Q07817); assay: BCL-XL inhibitors, dose response, selectivity assay for MCL1 inhibitor project, biochemical, fluorescence polarization, 1536-well (AID 2218)
# [2] = biological target: Ubiquitin carboxyl-terminal hydrolase BAP1 (Homo sapiens, UniProt Q92560); assay: BAP1 deubiquitinase inhibitors, dose response, biochemical (AID 714); assay type: functional
# Estrogen receptor = biological target: T2, Estrogen receptor (Homo sapiens, UniProt P03372);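 further: potency for inhibiting coactivator peptide recruitment to the receptor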
# T2 sequence (P03372 whole entry): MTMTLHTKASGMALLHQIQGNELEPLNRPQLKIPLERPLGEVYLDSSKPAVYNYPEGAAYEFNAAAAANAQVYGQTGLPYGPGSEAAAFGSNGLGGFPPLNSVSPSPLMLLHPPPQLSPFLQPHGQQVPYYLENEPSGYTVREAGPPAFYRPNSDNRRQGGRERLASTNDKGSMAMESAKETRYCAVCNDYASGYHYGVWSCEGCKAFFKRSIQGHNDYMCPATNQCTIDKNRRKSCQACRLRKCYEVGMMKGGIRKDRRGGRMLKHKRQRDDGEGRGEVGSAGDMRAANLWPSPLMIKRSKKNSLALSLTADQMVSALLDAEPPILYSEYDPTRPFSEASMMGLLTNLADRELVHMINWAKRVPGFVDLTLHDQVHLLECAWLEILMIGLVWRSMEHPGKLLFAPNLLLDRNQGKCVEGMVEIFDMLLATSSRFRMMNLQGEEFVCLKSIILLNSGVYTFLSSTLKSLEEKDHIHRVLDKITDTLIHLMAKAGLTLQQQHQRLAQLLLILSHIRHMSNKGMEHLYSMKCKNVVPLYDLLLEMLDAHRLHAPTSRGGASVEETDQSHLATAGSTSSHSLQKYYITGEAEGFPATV
# [3] = biological target: Protein-tyrosine kinase 2-beta (Homo sapiens, UniProt Q14289);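 further: potency of inhibitors of PYK2 kinase phosphorylation of poly-GT substrate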
# [4] = biological target: Dual specificity protein phosphatase 6 (Rattus norvegicus, UniProt Q64346); assay: MKP-3 phosphatase inhibitors, primary screen, biochemical, rat enzyme, in vitro (AID 425)
# Bcl-2-related protein A1 [5] = biological target: T3, Bcl-2-related protein A1 (Mus musculus, UniProt Q07440); assay: Bfl-1 inhibitors, primary screen, biochemical, fluorescence polarization, FITC-Bid, mouse (AID 432)
# [6] = biological target: T4, Carboxy-terminal domain RNA polymerase II polypeptide A small phosphatase 1 (Homo sapiens, UniProt Q9GZU7); assay: inhibitors of CTDSP1, concentration-response testing, biochemical assay, absorbance-based, actives from ultra-high-throughput screening (AID 540297); assay type: functional
# T4 sequence (Q9GZU7 whole entry): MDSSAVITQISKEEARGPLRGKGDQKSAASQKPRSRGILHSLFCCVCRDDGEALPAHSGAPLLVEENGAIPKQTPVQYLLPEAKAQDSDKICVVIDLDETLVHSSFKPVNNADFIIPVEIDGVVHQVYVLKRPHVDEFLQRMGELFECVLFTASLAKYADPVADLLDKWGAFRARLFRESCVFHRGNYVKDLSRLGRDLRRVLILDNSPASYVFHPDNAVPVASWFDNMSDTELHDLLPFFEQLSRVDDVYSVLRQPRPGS
# Bcl-2-related protein A1 [7] = biological target: T3, Bcl-2-related protein A1; assay: Bfl-1 inhibitors blocking BH3 peptide binding, confirmation, biochemical, TR-FRET, mouse Bfl-1 (AID 621);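 further: TR-FRET binding of GST-Bfl-1 to FITC-labelled Bid peptide via terbium antibody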
# [8] = biological target: Tyrosine-protein phosphatase non-receptor type 7 (Homo sapiens, UniProt P35236); assay: inhibitors of human HePTP phosphatase, […], biochemical, absorbance, leukemia target (AID 521); assay type: functional
# [9] = M. tuberculosis growth inhibition, HTS (AID 449762); assay type: functional
# Galanin receptor type 2 = Galanin receptor type 2 (Homo sapiens, UniProt O43603); assay: Dose Response cell-based high-throughput screening assay to identify agonists of galanin receptor 2 (GALR2). [Related pubchem assays: 864 ]; assay type: functional
# [10] = Luminescence Cell-Based Dose Confirmation HTS to Identify Inhibitors of Polyadenylation.; assay type: functional
# [11] = biological target: Diphosphomevalonate decarboxylase (Streptococcus pneumoniae serotype 2 (strain D39 / NCTC 7466), UniProt Q9FD53); assay: S. pneumoniae DPM-DC inhibition retest, confirmation, biochemical, cuvette format, coupled NADH fluorescence (AID 1028); assay type: functional
# [12] = biological target: Tyrosine-protein phosphatase non-receptor type 11 (Homo sapiens, UniProt Q06124); assay: SHP2 phosphatase inhibition, dose response, selectivity assay for STEP inhibitor project, biochemical (AID 602367); assay type: functional; conditions: read-out: IC50_Mean
# [13] = biological target: Peroxisome proliferator-activated receptor gamma/Nuclear receptor corepressor 2 (Homo sapiens, UniProt P37231+Q9Y618); assay: Counterscreen for NR2E3 inverse agonists: TR-FRET-based biochemical high throughput dose response assay to identify inverse agonists of the interaction between peroxisome proliferator-activated receptor gamma (PPARg) and nuclear receptor co-repressor 2 (NCOR2).; assay type: functional
# [14] = biological target: Dual specificity protein phosphatase 3 (Homo sapiens, UniProt P51452); assay: VHR phosphatase inhibition, dose response, selectivity assay for STEP inhibitor project, biochemical (AID 602374); assay type: functional; conditions: read-out: IC50_Mean
# [15] = biological target: Tyrosine-protein phosphatase non-receptor type 5 (Homo sapiens, UniProt P54829); assay: STEP phosphatase inhibitors, confirmation, biochemical, fluorescence intensity, uHTS hits (AID 602372); assay type: functional; conditions: read-out: IC50_Mean
# [16] = biological target: Tyrosine-protein phosphatase non-receptor type 22 (Homo sapiens, UniProt Q9Y2R2); assay: PTPN22 phosphatase inhibition, dose response, selectivity assay for STEP inhibitor project, biochemical (AID 624241); assay type: functional
# [17] = biological target: Photoreceptor-specific nuclear receptor (Homo sapiens, UniProt Q9Y5X4); assay: NR2E3 inverse agonists, dose response, biochemical, TR-FRET (AID 463256); assay type: functional
# [18] = THP-1 cell cytotoxicity, dose response, cytotoxicity control for non-replicating M. tuberculosis project (AID 489025); assay type: functional
# [19] = microbe, parasite or virus in culture; assay type: functional; conditions: Mycobacterium tuberculosis
# [20] = biological target: Aryl hydrocarbon receptor (Homo sapiens, UniProt P35869); assay: Luminescence-based cell-based high throughput dose response assay for activators of the Aryl Hydrocarbon Receptor (AHR). [Related pubchem assays: 2796 (Primary screen (AHR activators in singlicate)), 2845 (Confirmation screen (AHR activators in triplicate)), 434939 (Counterscreen (PXR activators in triplicate)), 2804 (Summary (AHR activators))]; assay type: ADME
# cells = assay type: functional
# [21] = Vero E6 cell cytotoxicity, dose response, cytotoxicity control for non-replicating M. tuberculosis project, secondary assay (AID 492998); assay type: functional, VeroE6; conditions: Vero C1008
# Bcl-2-like protein 10 = biological target: T5, Bcl-2-like protein 10 (Homo sapiens, UniProt Q9HD36); assay: displacers of TR3 peptide from Bcl-B, primary screen, selectivity assay for Bfl-1 inhibitor project, biochemical, fluorescence polarization, FITC-TR3 peptide (AID 748);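 further: fluorescence polarization from a fluorescein-labelled TR3 peptide binding purified Bcl-B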
# T5 sequence (Q9HD36 whole entry): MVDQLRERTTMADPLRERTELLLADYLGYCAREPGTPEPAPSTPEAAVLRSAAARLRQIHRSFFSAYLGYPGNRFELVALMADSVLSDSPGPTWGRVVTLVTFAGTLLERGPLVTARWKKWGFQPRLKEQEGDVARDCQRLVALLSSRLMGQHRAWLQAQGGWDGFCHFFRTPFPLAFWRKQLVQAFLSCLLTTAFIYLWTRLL
# Estrogen receptor beta [22] = biological target: T6, Estrogen receptor beta (Homo sapiens, UniProt Q92731);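 further: recombinant ER-beta bound to coactivator SRC1 peptide in presence of estradiol agonist; inhibitors block coactivator peptide binding and lower the FRET signal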
# Estrogen receptor beta [23] = biological target: T6, Estrogen receptor beta; assay: ERβ–SRC-3 coactivator interaction inhibitors, confirmation, orthogonal assay, biochemical, ELISA, streptavidin-HRP readout (AID 1060)
# [24] = biological target: Sphingosine 1-phosphate receptor 3 (Homo sapiens, UniProt Q99500); assay: Dose Response Cell-Based Assay for Agonists of the Sphingosine 1-Phosphate Receptor 3 (S1P3): Purchased Analogues. [Related pubchem assays: 373, 439 ]; assay type: functional
# [25] = biological target: Sphingosine 1-phosphate receptor 1 (Homo sapiens, UniProt P21453); assay: Dose Response Cell-Based Assay for Agonists of the Sphingosine 1-Phosphate Receptor 1 (S1P1): Purchased Analogues. [Related pubchem assays: 1192, 373, 439 ]; assay type: functional
# [26] = biological target: Sphingosine 1-phosphate receptor 2 (Homo sapiens, UniProt O95136); assay: Dose Response Cell-Based Assay for Agonists of the Sphingosine 1-Phosphate Receptor 2 (S1P2): Purchased Analogues. [Related pubchem assays: 1192, 373, 439 ]; assay type: functional
# Sphingosine 1-phosphate receptor 2, sequence (O95136 whole entry): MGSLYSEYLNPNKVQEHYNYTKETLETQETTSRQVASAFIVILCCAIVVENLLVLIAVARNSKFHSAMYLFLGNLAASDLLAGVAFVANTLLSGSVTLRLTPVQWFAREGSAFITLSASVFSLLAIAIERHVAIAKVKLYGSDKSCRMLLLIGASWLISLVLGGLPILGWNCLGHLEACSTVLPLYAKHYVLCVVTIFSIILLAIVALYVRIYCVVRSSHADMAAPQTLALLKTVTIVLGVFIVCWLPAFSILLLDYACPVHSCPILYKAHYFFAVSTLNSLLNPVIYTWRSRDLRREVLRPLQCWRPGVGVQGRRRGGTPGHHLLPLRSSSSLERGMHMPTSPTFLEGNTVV
# T3 sequence (Q07440 whole entry, the tested form may be a part): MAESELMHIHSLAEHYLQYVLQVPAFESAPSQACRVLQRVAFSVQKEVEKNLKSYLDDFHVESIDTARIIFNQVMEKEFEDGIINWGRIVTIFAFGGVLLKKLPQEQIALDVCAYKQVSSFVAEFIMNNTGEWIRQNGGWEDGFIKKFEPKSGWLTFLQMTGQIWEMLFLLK
# T6 sequence (Q92731 whole entry): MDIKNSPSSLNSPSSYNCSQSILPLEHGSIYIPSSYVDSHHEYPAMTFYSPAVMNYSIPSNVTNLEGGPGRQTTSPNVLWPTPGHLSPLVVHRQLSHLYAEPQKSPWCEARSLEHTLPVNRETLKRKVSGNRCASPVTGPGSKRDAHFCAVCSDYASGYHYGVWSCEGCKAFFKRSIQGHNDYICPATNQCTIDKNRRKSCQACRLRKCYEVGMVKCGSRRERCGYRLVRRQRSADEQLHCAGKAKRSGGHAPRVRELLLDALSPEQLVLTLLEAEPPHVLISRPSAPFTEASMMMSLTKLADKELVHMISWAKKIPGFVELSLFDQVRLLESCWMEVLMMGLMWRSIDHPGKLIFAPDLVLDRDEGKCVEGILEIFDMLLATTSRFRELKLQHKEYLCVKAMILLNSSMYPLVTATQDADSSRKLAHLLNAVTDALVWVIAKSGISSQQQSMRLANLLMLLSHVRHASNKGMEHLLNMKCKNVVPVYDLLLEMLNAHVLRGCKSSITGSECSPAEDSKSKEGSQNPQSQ
# Dual specificity protein phosphatase 3, sequence (P51452 whole entry): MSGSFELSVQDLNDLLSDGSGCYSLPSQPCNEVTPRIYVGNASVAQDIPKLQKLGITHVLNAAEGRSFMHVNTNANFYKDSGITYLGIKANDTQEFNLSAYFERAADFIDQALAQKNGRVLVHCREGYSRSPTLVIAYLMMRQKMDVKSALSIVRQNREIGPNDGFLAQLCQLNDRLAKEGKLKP
# Photoreceptor-specific nuclear receptor, sequence (Q9Y5X4 whole entry): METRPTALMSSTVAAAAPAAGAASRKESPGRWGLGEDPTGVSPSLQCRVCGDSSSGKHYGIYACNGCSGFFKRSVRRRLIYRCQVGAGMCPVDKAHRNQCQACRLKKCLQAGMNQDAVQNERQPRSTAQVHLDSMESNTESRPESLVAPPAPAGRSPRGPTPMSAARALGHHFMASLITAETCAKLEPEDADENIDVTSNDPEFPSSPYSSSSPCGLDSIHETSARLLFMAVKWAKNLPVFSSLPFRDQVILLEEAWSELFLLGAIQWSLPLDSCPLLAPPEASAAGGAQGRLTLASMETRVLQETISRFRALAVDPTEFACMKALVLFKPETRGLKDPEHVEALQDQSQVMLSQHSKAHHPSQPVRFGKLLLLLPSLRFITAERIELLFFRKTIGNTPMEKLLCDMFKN
# Dual specificity protein phosphatase 6, sequence (Q64346 whole entry): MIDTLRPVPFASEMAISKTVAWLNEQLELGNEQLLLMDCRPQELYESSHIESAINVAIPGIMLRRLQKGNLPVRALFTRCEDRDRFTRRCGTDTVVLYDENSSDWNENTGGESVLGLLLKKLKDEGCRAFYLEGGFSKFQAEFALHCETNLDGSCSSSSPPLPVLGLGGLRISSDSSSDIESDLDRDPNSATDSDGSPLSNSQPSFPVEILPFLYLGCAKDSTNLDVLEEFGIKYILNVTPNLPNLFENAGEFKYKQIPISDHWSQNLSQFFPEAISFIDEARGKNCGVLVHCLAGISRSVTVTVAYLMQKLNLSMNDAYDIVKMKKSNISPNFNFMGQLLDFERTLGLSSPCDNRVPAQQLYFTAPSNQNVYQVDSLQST
# Ubiquitin carboxyl-terminal hydrolase BAP1, sequence (Q92560 whole entry): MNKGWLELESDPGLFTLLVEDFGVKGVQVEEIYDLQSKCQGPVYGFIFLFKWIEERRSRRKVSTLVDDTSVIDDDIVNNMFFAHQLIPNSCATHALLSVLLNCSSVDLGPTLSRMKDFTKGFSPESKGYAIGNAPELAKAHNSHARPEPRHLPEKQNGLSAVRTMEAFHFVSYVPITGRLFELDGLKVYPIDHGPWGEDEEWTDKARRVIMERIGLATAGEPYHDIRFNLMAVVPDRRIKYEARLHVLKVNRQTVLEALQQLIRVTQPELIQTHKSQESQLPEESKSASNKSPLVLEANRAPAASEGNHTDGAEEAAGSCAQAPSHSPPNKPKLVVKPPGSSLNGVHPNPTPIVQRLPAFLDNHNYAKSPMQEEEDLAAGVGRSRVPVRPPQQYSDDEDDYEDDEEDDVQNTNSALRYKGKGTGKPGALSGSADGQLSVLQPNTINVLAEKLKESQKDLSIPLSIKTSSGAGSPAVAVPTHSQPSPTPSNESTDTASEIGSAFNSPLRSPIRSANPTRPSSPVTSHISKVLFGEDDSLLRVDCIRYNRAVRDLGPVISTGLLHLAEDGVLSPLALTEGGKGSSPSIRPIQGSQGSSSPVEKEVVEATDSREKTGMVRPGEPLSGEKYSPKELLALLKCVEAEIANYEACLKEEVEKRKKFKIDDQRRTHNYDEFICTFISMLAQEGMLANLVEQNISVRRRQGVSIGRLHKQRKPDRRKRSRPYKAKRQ
# Protein-tyrosine kinase 2-beta, sequence (Q14289 whole entry): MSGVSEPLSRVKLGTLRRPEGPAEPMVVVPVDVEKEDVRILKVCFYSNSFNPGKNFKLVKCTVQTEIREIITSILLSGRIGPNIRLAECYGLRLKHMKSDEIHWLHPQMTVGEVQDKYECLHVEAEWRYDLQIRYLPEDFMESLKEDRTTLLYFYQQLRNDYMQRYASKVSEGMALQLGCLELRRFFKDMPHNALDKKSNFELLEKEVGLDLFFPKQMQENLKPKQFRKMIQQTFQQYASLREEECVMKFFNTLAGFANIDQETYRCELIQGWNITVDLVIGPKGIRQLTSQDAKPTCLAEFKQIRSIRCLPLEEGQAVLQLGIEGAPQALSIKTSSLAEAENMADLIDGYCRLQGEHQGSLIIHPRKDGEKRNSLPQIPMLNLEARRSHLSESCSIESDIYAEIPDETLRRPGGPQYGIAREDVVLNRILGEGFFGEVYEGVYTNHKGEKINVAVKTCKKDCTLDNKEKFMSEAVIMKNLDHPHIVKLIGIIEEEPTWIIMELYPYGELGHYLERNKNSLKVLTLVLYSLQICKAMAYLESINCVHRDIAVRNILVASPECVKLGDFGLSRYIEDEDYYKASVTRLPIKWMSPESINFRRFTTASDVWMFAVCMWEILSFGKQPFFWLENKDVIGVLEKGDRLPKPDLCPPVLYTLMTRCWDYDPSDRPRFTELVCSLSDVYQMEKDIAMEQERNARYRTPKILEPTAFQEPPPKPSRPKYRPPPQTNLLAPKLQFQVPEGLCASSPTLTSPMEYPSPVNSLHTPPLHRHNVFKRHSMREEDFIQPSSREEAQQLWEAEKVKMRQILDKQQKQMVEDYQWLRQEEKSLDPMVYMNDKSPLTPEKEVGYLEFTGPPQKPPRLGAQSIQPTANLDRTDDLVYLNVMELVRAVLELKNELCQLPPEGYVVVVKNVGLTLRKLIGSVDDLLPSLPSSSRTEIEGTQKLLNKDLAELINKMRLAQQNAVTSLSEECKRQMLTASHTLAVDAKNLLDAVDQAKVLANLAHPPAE
# Bcl-2-like protein 1, sequence (Q07817 whole entry): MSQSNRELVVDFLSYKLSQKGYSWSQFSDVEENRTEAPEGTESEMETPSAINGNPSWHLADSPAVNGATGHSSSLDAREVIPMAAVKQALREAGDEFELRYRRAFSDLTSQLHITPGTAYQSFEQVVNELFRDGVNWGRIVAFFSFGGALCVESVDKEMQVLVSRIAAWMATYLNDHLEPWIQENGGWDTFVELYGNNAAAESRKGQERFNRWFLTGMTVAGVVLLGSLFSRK
# Aryl hydrocarbon receptor, sequence (P35869 whole entry): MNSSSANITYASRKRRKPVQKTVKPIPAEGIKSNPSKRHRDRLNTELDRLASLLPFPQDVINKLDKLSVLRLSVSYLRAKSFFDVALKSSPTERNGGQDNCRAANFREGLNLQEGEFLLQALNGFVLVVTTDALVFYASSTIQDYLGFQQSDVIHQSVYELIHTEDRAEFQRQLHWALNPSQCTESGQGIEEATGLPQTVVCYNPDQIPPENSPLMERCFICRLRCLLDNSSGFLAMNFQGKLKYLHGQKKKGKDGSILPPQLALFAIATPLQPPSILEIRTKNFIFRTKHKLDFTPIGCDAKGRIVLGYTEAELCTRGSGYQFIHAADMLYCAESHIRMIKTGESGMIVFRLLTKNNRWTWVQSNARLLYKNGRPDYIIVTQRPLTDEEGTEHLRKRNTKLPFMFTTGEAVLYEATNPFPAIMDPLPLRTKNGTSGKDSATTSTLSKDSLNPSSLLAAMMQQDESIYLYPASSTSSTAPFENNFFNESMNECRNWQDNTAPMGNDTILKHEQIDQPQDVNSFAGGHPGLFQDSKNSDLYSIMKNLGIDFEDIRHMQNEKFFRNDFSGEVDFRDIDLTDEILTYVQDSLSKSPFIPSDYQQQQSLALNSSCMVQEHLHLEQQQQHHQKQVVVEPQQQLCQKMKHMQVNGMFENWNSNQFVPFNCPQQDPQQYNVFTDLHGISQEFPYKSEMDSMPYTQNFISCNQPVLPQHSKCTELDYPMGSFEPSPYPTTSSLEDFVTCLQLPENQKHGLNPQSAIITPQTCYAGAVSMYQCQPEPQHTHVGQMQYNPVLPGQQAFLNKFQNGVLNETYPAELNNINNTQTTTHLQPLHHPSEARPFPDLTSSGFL
structure (smiles),measurement,setting,value
Nc1ccc(S(=O)(=O)Nc2nc3ccccc3o2)cc1,AC50,Caspase-6,42.1 µM (active)
same,IC50,[1],> 109 µM (not active)
same,IC50,Bcl-2-like protein 1,> 109 µM (not active)
Cc1sc(NC(=O)CSc2nnc(-c3ccc(F)cc3)o2)c(C#N)c1C,IC50,[2],10.5 µM (active)
same,IC50,Estrogen receptor,> 50 µM (not active)
COc1ccc2nc(O)c(-c3noc(-c4ccccc4)n3)cc2c1,IC50,[3],> 2.57 µM (not active)
same,IC50,[4],> 10 µM (not active)
same,IC50,Bcl-2-related protein A1 [5],24.6 µM (active)
same,IC50,[6],7.01 µM (active)
same,IC50,Bcl-2-related protein A1 [7],> 100 µM (not active)
same,IC50,[8],4.23 µM (active)
Cc1cc(/C=C(/C#N)c2cccc(F)c2)c(C)n1-c1cccnc1,IC50,[9],> 100 µM (active)
C=CCNC(=O)/C(C#N)=C/c1cn(-c2ccccc2)nc1-c1cccs1,EC50,Galanin receptor type 2,45.4 µM (not active)
COc1ccc(C2SCC(=O)N2c2c(C)n(C)n(-c3ccccc3)c2=O)cc1OC (stereo not drawn),EC50,[10],> 120 µM (not active)
O=C(NCc1ccco1)c1cccc(-n2sc3ccccc3c2=O)c1,IC50,[11],10.5 µM (active)
COc1ccc(-c2ccc(NC(=O)c3ccc(Br)o3)cc2)nn1,IC50,[12],4.3 µM (active)
same,IC50,[13],4.7 µM (active)
same,IC50,[14],6.6 µM (active)
same,IC50,[15],18 µM (active)
same,IC50,[16],74.1 µM (inactive)
same,IC50,[17],3.38 µM (active)
O=[N+]([O-])c1cc(-c2nc(-c3ccncc3)no2)cc([N+](=O)[O-])c1,CC50,[18],37.5 µM (active)
same,CC50,[19],> 40 µM (active)
same,EC50,[20],2.67 µM (active)
same,IC50,cells,3.13 µM (active)
same,CC50,[21],> 20 µM (active)
Cc1ccc(S(=O)(=O)N2CCCCC2)cc1C(=O)Nc1nc[nH]n1,IC50,Bcl-2-like protein 10,27.7 µM (active)
same,IC50,Estrogen receptor beta [22],8.84 µM (active)
same,IC50,Estrogen receptor beta [23],> 109 µM (not active)
same,IC50,Estrogen receptor,> 50 µM (not active)
Cc1ccc(-c2cc(C(=O)N(C)C3CCCCC3)no2)cc1,EC50,[24],> 50 µM (not active)
same,EC50,[25],0.724 µM (active)
same,EC50,[26],> 10 µM (not active)
